# Reference: ChEMBL document CHEMBL3425491, “Development of novel ACK1/TNK2 inhibitors using a fragment-based approach” (J Med Chem, 2015)
# Activity calls are given as the source filed them. No cut-off for these calls is given here.
# Key:
# Activated CDC42 kinase 1 [1] = molecular target: T1, Activated CDC42 kinase 1 (Homo sapiens, UniProt Q07912); assay: Inhibition of human ACK1 kinase activity using biotinylated ATGRYYAMKIL - AKT peptide substrate assessed as phosphorylation at 10 uM by ELISA; format: single protein
# Target sequence in this assay (Q07912 whole entry, looked up): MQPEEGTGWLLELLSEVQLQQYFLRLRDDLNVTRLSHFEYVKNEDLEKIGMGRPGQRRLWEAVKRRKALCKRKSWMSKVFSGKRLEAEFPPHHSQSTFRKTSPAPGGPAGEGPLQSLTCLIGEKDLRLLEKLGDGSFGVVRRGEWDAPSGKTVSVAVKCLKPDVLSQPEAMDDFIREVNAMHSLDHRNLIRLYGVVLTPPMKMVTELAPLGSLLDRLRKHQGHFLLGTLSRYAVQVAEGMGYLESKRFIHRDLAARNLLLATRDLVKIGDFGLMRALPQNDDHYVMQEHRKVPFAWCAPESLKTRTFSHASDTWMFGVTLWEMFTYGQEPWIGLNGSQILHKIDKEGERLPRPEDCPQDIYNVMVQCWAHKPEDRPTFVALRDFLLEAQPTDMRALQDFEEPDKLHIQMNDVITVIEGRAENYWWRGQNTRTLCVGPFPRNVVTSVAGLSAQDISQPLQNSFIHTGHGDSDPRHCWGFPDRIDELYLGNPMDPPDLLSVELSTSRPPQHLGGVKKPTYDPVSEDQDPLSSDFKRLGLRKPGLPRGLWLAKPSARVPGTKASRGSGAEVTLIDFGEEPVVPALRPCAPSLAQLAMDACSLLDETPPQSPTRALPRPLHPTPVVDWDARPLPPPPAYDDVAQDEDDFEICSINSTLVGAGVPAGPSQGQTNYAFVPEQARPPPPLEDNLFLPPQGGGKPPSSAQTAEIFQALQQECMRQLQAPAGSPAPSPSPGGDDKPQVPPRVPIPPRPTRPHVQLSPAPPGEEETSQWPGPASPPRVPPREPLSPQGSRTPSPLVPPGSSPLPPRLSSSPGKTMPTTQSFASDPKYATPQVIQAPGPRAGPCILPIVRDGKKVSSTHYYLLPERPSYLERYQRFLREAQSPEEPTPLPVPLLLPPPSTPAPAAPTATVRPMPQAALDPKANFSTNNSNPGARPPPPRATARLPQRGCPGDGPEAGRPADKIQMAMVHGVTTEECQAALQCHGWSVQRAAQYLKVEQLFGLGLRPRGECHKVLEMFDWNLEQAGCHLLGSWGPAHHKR
# Activated CDC42 kinase 1 [2] = molecular target: T1, Activated CDC42 kinase 1; assay: Inhibition of ACK1 kinase (unknown origin)
# Target sequence in this assay (Q07912 whole entry): as the sequence (Q07912 whole entry, looked up) above
# LAPC4 = assay: Anticancer activity against human LAPC4 cells assessed as inhibition of cell growth up to 10 uM after 72 hrs by trypan blue exclusion assay; format: functional, cell-based
# [3] = molecular target: Tyrosine-protein kinase Lck (Homo sapiens, UniProt P06239)
# Sequence of Tyrosine-protein kinase Lck (P06239 whole entry): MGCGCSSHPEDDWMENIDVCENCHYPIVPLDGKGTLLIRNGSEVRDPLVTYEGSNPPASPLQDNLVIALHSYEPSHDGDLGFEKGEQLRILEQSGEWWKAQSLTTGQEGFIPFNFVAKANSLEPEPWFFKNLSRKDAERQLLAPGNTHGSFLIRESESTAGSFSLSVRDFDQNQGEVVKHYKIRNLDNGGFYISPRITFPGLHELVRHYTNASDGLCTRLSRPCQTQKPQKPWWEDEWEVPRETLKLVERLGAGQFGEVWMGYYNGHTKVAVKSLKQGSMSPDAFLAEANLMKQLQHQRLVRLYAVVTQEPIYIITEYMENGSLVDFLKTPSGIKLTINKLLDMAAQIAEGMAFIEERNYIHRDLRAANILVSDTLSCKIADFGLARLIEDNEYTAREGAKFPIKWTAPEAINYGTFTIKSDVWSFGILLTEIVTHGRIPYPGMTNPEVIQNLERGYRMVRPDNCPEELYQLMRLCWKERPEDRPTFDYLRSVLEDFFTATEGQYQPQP
inhibition (Activated CDC42 kinase 1 [1]),Compound,further results
68%,CN(C)CCNC(=O)CCc1ccc(Nc2ncc(Cl)c(NCC3CCCO3)n2)cc1 (configuration not stated),
85%,O=C(Nc1c(F)cccc1Cl)c1cnc(Nc2ccc(O)cc2)nc1NCC1CCCO1 (racemic),
93%,O=C(O)C1CCN(c2ccc(Nc3ncc(Cl)c(NCC4CCCO4)n3)cc2)CC1 (racemic),
,COC(C)(C)CCn1nc(Nc2c(C)cccc2C)c2cnc(Nc3ccccc3)nc21,IC50 (Activated CDC42 kinase 1 [2]): 2 nM
92%,O=C(O)CCC(=O)N1CCN(c2ccc(Nc3ncc(Br)c(NCC4CCCO4)n3)cc2)CC1 (configuration not stated),
16%,CN1CCN(c2ccc(Nc3nccc(NCC4CCCO4)n3)cc2)CC1 (configuration not stated),
68%,COc1ccc(Nc2ncc(C(=O)Nc3c(F)cccc3Cl)c(NCC3CCCO3)n2)cc1 (racemic),
93%,CN1CCN(c2ccc(Nc3ncc(Br)c(NCC4CCCO4)n3)cc2)CC1 (configuration not stated),
89.5%,O=C(Nc1c(F)cccc1Cl)c1cnc(Nc2ccc(N3CCNCC3)cc2)nc1NCC1CCCO1 (racemic),
61%,O=C(O)Cc1ccc(Nc2ncc(Br)c(NCC3CCCO3)n2)cc1 (configuration not stated),
,c1ccc(-c2oc3ncnc(NC[C@@H]4CCCO4)c3c2-c2ccccc2)cc1,inhibition (LAPC4): Active
,CN(C)CCOc1ccc(-c2oc3ncnc(NCC4SCCS4)c3c2-c2ccccc2)cc1,Ki (Activated CDC42 kinase 1 [2]): 0.3 nM; Ki [3]: 138 nM
74.5%,O=C(O)CCc1ccc(Nc2ncc(Br)c(NCC3CCCO3)n2)cc1 (configuration not stated),
76%,Oc1ccc(Nc2ncc(Br)c(NCC3CCCO3)n2)cc1F (configuration not stated),
82%,O=C(Nc1c(F)cccc1Cl)c1cnc(Nc2ccc(N3CCOCC3)cc2)nc1NCC1CCCO1 (racemic),
79.5%,Clc1cnc(Nc2ccc(C3CCNCC3)cc2)nc1NCC1CCCO1 (racemic),
